Key:
[1] = 50-150 mg/day for 3 months, rheumatoid arthritis patients; cited from earlier work
[2] = system: piroxicam-induced gastric lesions; assay: animal or person; type: in vivo, rat (CD strain, Sprague-Dawley); details: for Lesions/Rat (mean +/- SE): with 120 mg/kg ethanolamine salt of piroxicam; for Significance p < 0.05: Student's two-tailed t test vs piroxicam-only control; for reduction of piroxicam-induced gastric lesions: healthy fasted rat
Method: Adult male "specific pathogen free" rats weighing 140-160 grams of the CD strain (Sprague-Dawley) were obtained from Charles River Breeding Laboratories (Kingston, N.Y.) The animals were acclimated for approximately one week and tested when they reached a body weight of 200-225 grams. The rats were fasted for 16 hours and randomized into groups consisting of 8 to 20 animals which were normalized with regard to their average body weight.
Gastric ulcers were induced in the animals by orally dosing them with a single 120 mg/kg dose of piroxicam (ethanolamine salt) in 2 ml. of aqueous 0.1% methylcellulose (pH=6.8). Those animals receiving a second medicinal agent separately received the second drug in an additional 2 ml. of the same medium at about the same time. Six and one-half hours later, the animals were sacrificed by cervical dislocation and autopsied. The stomachs were surgically removed, dissected along the greater curvature and rinsed with cold water. The stomachs were individually scored for both linear and punctuate lesions. The total number of lesions was used for scoring purposes. The data obtained from each group of rats was analyzed after calculation of the mean number ± the standard error of total gastric lesions. The values obtained were also compared to the controls which received only piroxicam by the two-tailed Student's T-Test for non-paired data.

[3] = system: rheumatoid arthritis; details: 50-150 mg/day for 3 months, rheumatoid arthritis patients, most taking aspirin; cited from earlier work
[4] = system: ulcers; details: 1.1 mg/kg, injection; cited from earlier work
[5] = system: gastric ulcers; details: subcutaneous injection; cited from earlier work

Cc1ncc(CO)c(CO)c1O.Cl [Pyridoxine Hydrochloride, pyridoxine hydrochloride]
increase in plasma levels of pyridoxal phosphate [1]: 2-5 fold
Lesions/Rat (mean +/- SE) ([2]; 3.3 mg/kg oral, 10 rats): 7.0 (1.1)
Lesions/Rat (mean +/- SE) ([2]; 10 mg/kg oral, 30 rats): 4.2 (1.2)
Lesions/Rat (mean +/- SE) ([2]; 33 mg/kg oral, 50 rats): 3.9 (1.1)
Significance p < 0.05 ([2]; 33 mg/kg oral): + (p < 0.05)
Lesions/Rat (mean +/- SE) ([2]; 100 mg/kg oral, 20 rats): 2.7 (1.1)
Significance p < 0.05 ([2]; 100 mg/kg oral): + (p < 0.05)
ED50 ([2]; Rattus norvegicus, 6.5 h, oral, linear regression analysis, 120 mg/kg ethanolamine salt of piroxicam, read-out: ED50 (dose required to inhibit 50% of control gastric lesion)): 33 mg/kg
clinical improvements in the disease [3]: no clinical improvements

Cc1ncc(CO)c(CO)c1O [Pyridoxine, pyridoxine]
frequency of ulcers [4]: reduce the frequency of ulcers
healing of gastric ulcers [5]: not promote the healing
pain of gastric ulcers [5]: alleviate the pain

CC(=O)Nc1ccc(O)cc1 [acetaminophen]
reduction of piroxicam-induced gastric lesions [2]: significantly reduce

CN1C(=O)CN=C(c2ccccc2)c2cc(Cl)ccc21 [diazepam]
reduction of piroxicam-induced gastric lesions [2]: significantly reduce

CN(C)CCC=C1c2ccccc2COc2ccccc21 [doxepin]
reduction of piroxicam-induced gastric lesions [2]: significantly reduce

c1ccc(CCNc2nc(-c3ccccc3)cs2)cc1 [fanetizole]
reduction of piroxicam-induced gastric lesions [2]: significantly reduce

CC(C)(C)NCC(O)c1ccc(O)c(CO)n1 (centres unmarked) [pirbuterol]
reduction of piroxicam-induced gastric lesions [2]: significantly reduce

— US4564614A, “Antiinflammatory methods” (priority 1985, dated 1986)
